Reference: patent US20040076968A1, “Method for detecting pre-disposition to hepatotoxicity” (priority 2000, published 2004)

Tests used:
[1] = Clinical trials for tolcapone in patients with Parkinson's disease: liver transaminases; format: in vivo, human; settings: rare circumstances
Description: There was therefore a desire to establish whether there is a correlation between the occurrence of such liver abnormalities, which are indicators of liver toxicity and certain genetic pre-dispositions.

[2] = system: rat hepatotocyte cultures; test: Cytotoxicity in rat hepatocyte cultures; format: cell-based; settings: in vitro
[3] = system: UGT1A7 gene; test: Association of UGT1A7 polymorphisms with liver function abnormality in tolcapone-treated patients (case-control genotyping); format: in vivo, human
Description: Disease severity had already been controlled for by the original study inclusion criteria.
For all other single nucleotide polymorphisms (SNPs) discovery and genotyping was done by double-stranded DNA sequencing using an ABI capillary sequencer and Big Dye chemistry (ABI). The primers used to amplify all exons are shown below and were also used as sequencing primers. Publicly available genomic sequences were used as references for primer design. All polymorphisms were targeted with these pairs-of-primer sets:
Fourty nanograms of genomic DNA were PCR-amplified in 50 μl reactions using an automated PCR machine. Reaction conditions varied as follows. For the amplification of the UGT1A6-fragment conditions were as follows: 10 mM Tris pH 8.3, 50 mM KCl, 1.5 mM MgCl2, 0.2 mM of each dNTP, 0.4 μM of each primer and 1.5U Boehringer Taq Polymerase. The thermocycling protocol consisted of an initial incubation of 95° C. for 15 min. followed by 35 cycles of 94° C. for 1 min., 57° C. for 30 sec., 72° C. for 1 min., and one final extension step of 72° C. for 10 min. The UGT1A7-1 fragment was amplified using Qiagen PCR buffer with 1.5 mM MgCl2, 0.2 mM of each dNTP, 0.4 μM of each primer and 1.5U Boehringer Taq Polymerase. The thermocycling protocol was the same as for UGT1A6-fragment with one exception: the annealing temperature was 61° C. For UGT1A7-2 fragment PCR conditions were as follows: 150 mM Tris pH 8.5, 15 mM (NH4)2SO4, 3.5 mM MgCl2, 0.2 mM of each dNTP, 0.4 μM of each primer and 1.5U Qiagen Hot Start Taq Polymerase. Thermocycling was done using a touch-down PCR protocol. After an iniatial amplification of 95° C. for 10 min. followed 5 cycles of 95° C. for 1 min., 62° C. for 30 sec. (minus 0.5° C. per cycle), 72° C. for 1 min and thirty cycles of 95° C. for 1 min., 60° C. for 30 sec., 72° C. for 1 min. and a final extension step of 72° C. for 10 min. After PCR amplification fragments were purified using the Qiaquick PCR purification kit on a Biorobot 9600. Cycle sequencing was performed on an automated PCR machine using ABI Big Dye terminator chemistry according to the manufacturer's intruction with the following changes: 2.5-5 ng/100 bp of PCR product were mixed with 2 μl Big Dye terminatior mix, oligonucleotide primer concentration was 10 pmol, if necessary 5% DMSO was added to the reaction; the final reaction volume was 10 μl. Sequencing reactions were subjected to 28 cycles at 93° C. for 30 sec, 48° C. for 30 sec, and 58° C. for 120 sec., followed by an ethanol/NaOAc precipitation. After decanting the ethanol, samples were evaporated to dryness using a SpeedVac for 2 min. and were resuspended in 45 μl ultrapure water (MERCK, HPLC grade). […] were loaded on an ABI 3700 capillary sequencer using POP5 as a polymer. After sequencing, the polymorphism analyses were done using Polyphred software (licenced from University of Washington).
The patient samples were divided into two groups.
For each genotype, the following analyses were performed:
a) Analysis of the entire genotype: patients were classified according to the following three categories: homozygous 1/1 (two copies of allele 1 and no copies of allele 2), heterozygous 1/2 (one copy of allele 1 and one copy of allele 2) or homozygous 2/2 (no copies of allele 1 and two copies of allele 2). Analysis was conducted to assess whether there were differences in the proportion of case patients in each of these groups, compared with the proportion of control patients. The Cochran-Maentel-Hanszel (CMH) test was applied to the data presented in a 2-by-3 table (the two columns indicating presence or absence of liver function abnormality and the three rows indicating the three categories of the genotype).

n (%) of patients ([3]; UGT1A7_197 C/G, Allele A Absent, Liver Function Abnormality Absent): 125 (46.5%) | n (%) of patients ([3]; UGT1A7_197 C/G, Allele A Absent, Liver Function Abnormality Present): 46 (34.6%) | n (%) of patients ([3]; UGT1A7_197 C/G, Allele A Present, Liver Function Abnormality Absent): 144 (53.5%) | n (%) of patients ([3]; UGT1A7_197 C/G, Allele A Present, Liver Function Abnormality Present): 87 (65.4%) | n (%) of patients ([3]; UGT1A7_197 C/G, Allele C Absent, Liver Function Abnormality Absent): 32 (11.9%) | n (%) of patients ([3]; UGT1A7_197 C/G, Allele C Absent, Liver Function Abnormality Present): 25 (18.8%) | n (%) of patients ([3]; UGT1A7_197 C/G, Allele C Present, Liver Function Abnormality Absent): 237 (88.1%) | n (%) of patients ([3]; UGT1A7_197 C/G, Allele C Present, Liver Function Abnormality Present): 108 (81.2%) | n (%) of patients ([3]; UGT1A7_197 C/G, Genotype Heterozygous A/C, Liver Function Abnormality Absent): 112 (41.6%) | n (%) of patients ([3]; UGT1A7_197 C/G, Genotype Heterozygous A/C, Liver Function Abnormality Present): 62 (46.6%) | n (%) of patients ([3]; UGT1A7_197 C/G, Genotype Homozygous A/A, Liver Function Abnormality Absent): 32 (11.9%) | n (%) of patients ([3]; UGT1A7_197 C/G, Genotype Homozygous A/A, Liver Function Abnormality Present): 25 (18.8%) | n (%) of patients ([3]; UGT1A7_197 C/G, Genotype Homozygous C/C, Liver Function Abnormality Absent): 125 (46.5%) | n (%) of patients ([3]; UGT1A7_197 C/G, Genotype Homozygous C/C, Liver Function Abnormality Present): 46 (34.6%) | n (%) of patients ([3]; UGT1A7_551 Asn129Lys, Allele G Absent, Liver Function Abnormality Absent): 49 (18.2%) | n (%) of patients ([3]; UGT1A7_551 Asn129Lys, Allele G Absent, Liver Function Abnormality Present): 14 (10.6%) | n (%) of patients ([3]; UGT1A7_551 Asn129Lys, Allele G Present, Liver Function Abnormality Absent): 220 (81.8%) | n (%) of patients ([3]; UGT1A7_551 Asn129Lys, Allele G Present, Liver Function Abnormality Present): 118 (89.4%) | n (%) of patients ([3]; UGT1A7_551 Asn129Lys, Allele T Absent, Liver Function Abnormality Absent): 96 (35.7%) | n (%) of patients ([3]; UGT1A7_551 Asn129Lys, Allele T Absent, Liver Function Abnormality Present): 59 (44.7%) | n (%) of patients ([3]; UGT1A7_551 Asn129Lys, Allele T Present, Liver Function Abnormality Absent): 173 (64.3%) | n (%) of patients ([3]; UGT1A7_551 Asn129Lys, Genotype Heterozygous G/T, Liver Function Abnormality Absent): 124 (46.1%) | n (%) of patients ([3]; UGT1A7_551 Asn129Lys, Genotype Heterozygous G/T, Liver Function Abnormality Present): 59 (44.7%) | n (%) of patients ([3]; UGT1A7_551 Asn129Lys, Genotype Homozygous G/G, Liver Function Abnormality Absent): 96 (35.7%) | n (%) of patients ([3]; UGT1A7_551 Asn129Lys, Genotype Homozygous G/G, Liver Function Abnormality Present): 59 (44.7%) | n (%) of patients ([3]; UGT1A7_551 Asn129Lys, Genotype Homozygous T/T, Liver Function Abnormality Absent): 49 (18.2%) | n (%) of patients ([3]; UGT1A7_551 Asn129Lys, Genotype Homozygous T/T, Liver Function Abnormality Present): 14 (10.6%) | n (%) of patients ([3]; UGT1A7_555 silent or Arg131Lys, Allele A Absent, Liver Function Abnormality Absent): 49 (18.2%) | n (%) of patients ([3]; UGT1A7_555 silent or Arg131Lys, Allele A Absent, Liver Function Abnormality Present): 14 (10.6%) | n (%) of patients ([3]; UGT1A7_555 silent or Arg131Lys, Allele A Present, Liver Function Abnormality Absent): 220 (81.8%) | n (%) of patients ([3]; UGT1A7_555 silent or Arg131Lys, Allele A Present, Liver Function Abnormality Present): 118 (89.4%) | n (%) of patients ([3]; UGT1A7_555 silent or Arg131Lys, Allele C Absent, Liver Function Abnormality Absent): 96 (35.7%) | n (%) of patients ([3]; UGT1A7_555 silent or Arg131Lys, Allele C Absent, Liver Function Abnormality Present): 58 (43.9%) | n (%) of patients ([3]; UGT1A7_555 silent or Arg131Lys, Allele C Present, Liver Function Abnormality Absent): 173 (64.3%)
SMILES: Cc1ccc(C(=O)c2cc(O)c(O)c([N+](=O)[O-])c2)cc1 [tolcapone]
effect on liver transaminase activity [1]: reversible asymptomatic increase in liver transaminase activity | cytotoxicity on inhibition of glucuronidation and oxidation [2]: increase cytotoxicity
